Test results published in ChEMBL document CHEMBL2440076, “New triarylpyrazoles as broad-spectrum anticancer agents: design, synthesis, and biological evaluation” (Eur J Med Chem, 2013).

Columns and labels:
Format in all cases: functional
[1] = test system: LOX IMVI; assay: Growth inhibition of human LOXIMVI cells assessed as cell growth at 5X10'-5 M after 48 hrs by sulforhodamine B assay; conditions: read-out: Activity
[2] = test system: SF-539; assay: Growth inhibition of human SF539 cells assessed as cell growth at 5X10'-5 M after 48 hrs by sulforhodamine B assay; conditions: SF-539, 48 h, read-out: Activity
[3] = test system: MOLT-4; assay: Growth inhibition of human MOLT4 cells assessed as cell growth at 5X10'-5 M after 48 hrs by sulforhodamine B assay; conditions: MOLT-4, 48 h, read-out: Activity
[4] = test system: T47D; assay: Growth inhibition of human T47D cells assessed as cell growth at 5X10'-6 M after 48 hrs by sulforhodamine B assay; conditions: read-out: Activity
[5] = test system: RXF 393; assay: Growth inhibition of human RXF393 cells assessed as cell growth at 5X10'-6 M after 48 hrs by sulforhodamine B assay; conditions: RXF 393, 48 h, read-out: Activity
[6] = test system: ACHN; assay: Growth inhibition of human ACHN cells assessed as cell growth at 5X10'-6 M after 48 hrs by sulforhodamine B assay; conditions: read-out: Activity
[7] = test system: IGROV-1; assay: Growth inhibition of human IGROV1 cells assessed as cell growth at 5X10'-6 M after 48 hrs by sulforhodamine B assay; conditions: IGROV-1, 48 h, read-out: Activity
[8] = test system: SK-MEL-28; assay: Growth inhibition of human SK-MEL-28 cells assessed as cell growth at 5X10'-6 M after 48 hrs by sulforhodamine B assay; conditions: SK-MEL-28, 48 h, read-out: Activity
[9] = test system: Malme-3M; assay: Growth inhibition of human MALME-3M cells assessed as cell growth at 5X10'-6 M after 48 hrs by sulforhodamine B assay; conditions: read-out: Activity
[10] = test system: SR; assay: Growth inhibition of human SR cells assessed as cell growth at 5X10'-9 M after 48 hrs by sulforhodamine B assay; conditions: read-out: Activity
[11] = test system: LOX IMVI; assay: Growth inhibition of human LOXIMVI cells assessed as cell growth at 5X10'-6 M after 48 hrs by sulforhodamine B assay; conditions: read-out: Activity
[12] = test system: SNB-19; assay: Growth inhibition of human SNB19 cells assessed as cell growth at 5X10'-6 M after 48 hrs by sulforhodamine B assay; conditions: SNB-19, 48 h, read-out: Activity
[13] = Growth inhibition of human HCC2998 cells assessed as cell growth at 5X10'-6 M after 48 hrs by sulforhodamine B assay; conditions: HCC 2998, 48 h, read-out: Activity
[14] = test system: SR; assay: Growth inhibition of human SR cells assessed as cell growth at 5X10'-6 M after 48 hrs by sulforhodamine B assay; conditions: read-out: Activity
[15] = test system: PC-3; assay: Growth inhibition of human PC3 cells assessed as cell growth at 5X10'-7 M after 48 hrs by sulforhodamine B assay; conditions: PC-3, 48 h, read-out: Activity
[16] = test system: SNB-75; assay: Growth inhibition of human SNB75 cells assessed as cell growth at 5X10'-7 M after 48 hrs by sulforhodamine B assay; conditions: SNB-75, 48 h, read-out: Activity
[17] = test system: HCT-15; assay: Growth inhibition of human HCT15 cells assessed as cell growth at 5X10'-7 M after 48 hrs by sulforhodamine B assay; conditions: HCT-15, 48 h, read-out: Activity
[18] = test system: HOP-92; assay: Growth inhibition of human HOP92 cells assessed as cell growth at 5X10'-7 M after 48 hrs by sulforhodamine B assay; conditions: HOP-92, 48 h, read-out: Activity
[19] = Growth inhibition of human Hs 578T cells assessed as cell growth at 5X10'-8 M after 48 hrs by sulforhodamine B assay; conditions: read-out: Activity
[20] = test system: SN12C; assay: Growth inhibition of human SN12C cells assessed as cell growth at 5X10'-8 M after 48 hrs by sulforhodamine B assay; conditions: read-out: Activity
[21] = Growth inhibition of human NCI-ADR-RES cells assessed as cell growth at 5X10'-8 M after 48 hrs by sulforhodamine B assay; conditions: read-out: Activity
[22] = test system: OVCAR-5; assay: Growth inhibition of human OVCAR5 cells assessed as cell growth at 5X10'-8 M after 48 hrs by sulforhodamine B assay; conditions: OVCAR-5, 48 h, read-out: Activity
[23] = test system: OVCAR-3; assay: Growth inhibition of human OVCAR3 cells assessed as cell growth at 5X10'-8 M after 48 hrs by sulforhodamine B assay; conditions: OVCAR-3, 48 h, read-out: Activity
[24] = test system: UACC-257; assay: Growth inhibition of human UACC257 cells assessed as cell growth at 5X10'-8 M after 48 hrs by sulforhodamine B assay; conditions: UACC-257, 48 h, read-out: Activity
[25] = test system: SF-539; assay: Growth inhibition of human SF539 cells assessed as cell growth at 5X10'-8 M after 48 hrs by sulforhodamine B assay; conditions: SF-539, 48 h, read-out: Activity
[26] = test system: TK-10; assay: Growth inhibition of human TK10 cells assessed as cell growth at 5X10'-5 M after 48 hrs by sulforhodamine B assay; conditions: TK-10, 48 h, read-out: Activity
[27] = test system: OVCAR-3; assay: Growth inhibition of human OVCAR3 cells assessed as cell growth at 5X10'-5 M after 48 hrs by sulforhodamine B assay; conditions: OVCAR-3, 48 h, read-out: Activity
[28] = test system: SK-MEL-28; assay: Growth inhibition of human SK-MEL-28 cells assessed as cell growth at 5X10'-5 M after 48 hrs by sulforhodamine B assay; conditions: SK-MEL-28, 48 h, read-out: Activity
[29] = test system: HCT-15; assay: Growth inhibition of human HCT15 cells assessed as cell growth at 5X10'-8 M after 48 hrs by sulforhodamine B assay; conditions: HCT-15, 48 h, read-out: Activity
[30] = test system: NCI-H23; assay: Growth inhibition of human NCI-H23 cells assessed as cell growth at 5X10'-8 M after 48 hrs by sulforhodamine B assay; conditions: NCI-H23, 48 h, read-out: Activity
[31] = test system: HOP-62; assay: Growth inhibition of human HOP62 cells assessed as cell growth at 5X10'-8 M after 48 hrs by sulforhodamine B assay; conditions: HOP-62, 48 h, read-out: Activity
[32] = test system: SR; assay: Growth inhibition of human SR cells assessed as cell growth at 5X10'-8 M after 48 hrs by sulforhodamine B assay; conditions: read-out: Activity
[33] = test system: MOLT-4; assay: Growth inhibition of human MOLT4 cells assessed as cell growth at 5X10'-8 M after 48 hrs by sulforhodamine B assay; conditions: MOLT-4, 48 h, read-out: Activity
[34] = test system: MCF7; assay: Growth inhibition of human MCF7 cells assessed as cell growth at 5X10'-9 M after 48 hrs by sulforhodamine B assay; conditions: MCF7, 48 h, read-out: Activity
[35] = test system: UO-31; assay: Growth inhibition of human UO31 cells assessed as cell growth at 5X10'-9 M after 48 hrs by sulforhodamine B assay; conditions: UO-31, 48 h, read-out: Activity
[36] = test system: ACHN; assay: Growth inhibition of human ACHN cells assessed as cell growth at 5X10'-9 M after 48 hrs by sulforhodamine B assay; conditions: read-out: Activity
[37] = test system: IGROV-1; assay: Growth inhibition of human IGROV1 cells assessed as cell growth at 5X10'-9 M after 48 hrs by sulforhodamine B assay; conditions: IGROV-1, 48 h, read-out: Activity
[38] = test system: Malme-3M; assay: Growth inhibition of human MALME-3M cells assessed as cell growth at 5X10'-9 M after 48 hrs by sulforhodamine B assay; conditions: read-out: Activity
[39] = test system: SNB-75; assay: Growth inhibition of human SNB75 cells assessed as cell growth at 5X10'-9 M after 48 hrs by sulforhodamine B assay; conditions: SNB-75, 48 h, read-out: Activity

| Compound | growth at 50 µM [1] [%] | growth at 50 µM [2] [%] | growth at 50 µM [3] [%] | growth at 5 µM [4] [%] | growth at 5 µM [5] [%] | growth at 5 µM [6] [%] | growth at 5 µM [7] [%] | growth at 5 µM [8] [%] | growth at 5 µM [9] [%] | growth at 0.005 µM [10] [%] | growth at 5 µM [11] [%] | growth at 5 µM [12] [%] | growth at 5 µM [13] [%] | growth at 5 µM [14] [%] | growth at 0.5 µM [15] [%] | growth at 0.5 µM [16] [%] | growth at 0.5 µM [17] [%] | growth at 0.5 µM [18] [%] | growth at 0.05 µM [19] [%] | growth at 0.05 µM [20] [%] | other results |
| --- | --- | --- | --- | --- | --- | --- | --- | --- | --- | --- | --- | --- | --- | --- | --- | --- | --- | --- | --- | --- | --- |
| COc1cc(-c2nn(-c3cccc(NC(=O)c4cccc(C(F)(F)F)c4)c3)cc2-c2ccncc2)ccc1Cl | 5 | -23 | 16 | 36 | -17 | 27 | 22 | 34 | 21 | 96 | 8 | 28 | 21 | -3 | 71 | 79 | 84 | 53 | 91 | 99 | growth at 0.05 µM [21]: 96%; growth at 0.05 µM [22]: 90%; growth at 0.05 µM [23]: 101%; growth at 0.05 µM [24]: 99%; growth at 0.05 µM [25]: 94%; growth at 50 µM [26]: 18%; growth at 50 µM [27]: -38%; growth at 50 µM [28]: 38%; growth at 0.05 µM [29]: 96%; growth at 0.05 µM [30]: 90%; growth at 0.05 µM [31]: 97%; growth at 0.05 µM [32]: 98%; growth at 0.05 µM [33]: 98%; growth at 0.005 µM [34]: 94%; growth at 0.005 µM [35]: 82%; growth at 0.005 µM [36]: 103%; growth at 0.005 µM [37]: 102%; growth at 0.005 µM [38]: 95%; growth at 0.005 µM [39]: 90% |
| O=C(Nc1cccc(-n2cc(-c3ccncc3)c(-c3ccc(Cl)c(O)c3)n2)c1)Nc1cc(C(F)(F)F)cc(C(F)(F)F)c1 | -95 | -96 | -29 | 20 | -36 | 2 | -12 | -85 | -21 | 102 | -94 | 16 | -43 | -11 | 41 | 81 | 49 | 45 | 94 | 96 | growth at 0.05 µM [21]: 103%; growth at 0.05 µM [22]: 89%; growth at 0.05 µM [23]: 111%; growth at 0.05 µM [24]: 89%; growth at 0.05 µM [25]: 94%; growth at 50 µM [26]: -95%; growth at 50 µM [27]: -94%; growth at 50 µM [28]: -95%; growth at 0.05 µM [29]: 93%; growth at 0.05 µM [30]: 99%; growth at 0.05 µM [31]: 97%; growth at 0.05 µM [32]: 102%; growth at 0.05 µM [33]: 109%; growth at 0.005 µM [34]: 91%; growth at 0.005 µM [35]: 97%; growth at 0.005 µM [36]: 103%; growth at 0.005 µM [37]: 108%; growth at 0.005 µM [38]: 107%; growth at 0.005 µM [39]: 88% |
| O=C(Nc1cccc(-n2cc(-c3ccncc3)c(-c3ccc(Cl)c(O)c3)n2)c1)c1ccc(N2CCOCC2)c(C(F)(F)F)c1 | -53 | -18 | -5 | 84 | -18 | 25 | 68 | 5 | -9 | 94 | 10 | 45 | 53 | 18 | 85 | 72 | 91 | 53 | 87 | 98 | growth at 0.05 µM [21]: 98%; growth at 0.05 µM [22]: 97%; growth at 0.05 µM [23]: 100%; growth at 0.05 µM [24]: 104%; growth at 0.05 µM [25]: 93%; growth at 50 µM [26]: 24%; growth at 50 µM [27]: 11%; growth at 50 µM [28]: -54%; growth at 0.05 µM [29]: 99%; growth at 0.05 µM [30]: 93%; growth at 0.05 µM [31]: 101%; growth at 0.05 µM [32]: 99%; growth at 0.05 µM [33]: 94%; growth at 0.005 µM [34]: 89%; growth at 0.005 µM [35]: 88%; growth at 0.005 µM [36]: 102%; growth at 0.005 µM [37]: 103%; growth at 0.005 µM [38]: 88%; growth at 0.005 µM [39]: 94% |
